Reference: patent US5658924A, “1,8-naphthyridin-2-one derivative and use thereof” (The Green Cross Corporation, priority 1995, dated 1997)

What was measured:
[1] = test system: histamine-induced contraction of bronchial specimen; experiment: Suppression of histamine-induced contraction of bronchial specimen extracted from guinea pig; design: species or system guinea pig (male Hartley); settings: histamine 3 μM
Experimental: (§1) Suppression of histamine or leukotriene D4 -induced contraction of bronchial specimen extracted from guinea pig
(§2) Male Hartley guinea pigs weighing 250-450 g were fainted by hitting in the head and exsanguinated to death. The trachea was removed and ring specimens were prepared by a conventional method. The specimens were kept at 37° C. and suspended in a Krebs-Ringer solution (10 ml) aerated with a 95% O2 -5% CO2 mixed gas, and isometric tension was measured. The specimens were contracted with histamine (3 μM) or leukotriene D4 (1 nM). When the reaction became stable, a drug dissolved in dimethyl sulfoxide was added to the Kreb's Ringer solution. The relaxation ratio was calculated based on the base line before the contraction, which was taken as 100% relaxation.

[2] = test system: leukotriene D4-induced contraction of bronchial specimen; experiment: Suppression of leukotriene D4-induced contraction of bronchial specimen extracted from guinea pig; design: species or system guinea pig (male Hartley); settings: leukotriene D4 1 nM
Experimental: as §1, §2

[3] = test system: PDE isozyme I; experiment: Inhibition of PDE (isozyme I); assay type: biochemical; settings: pig ventricular muscle, [3H]-cAMP substrate; read-out: PDE Inhibitory activity (IC5 :μM), PDE isozyme I
Experimental: (§3) Inhibition of PDE by 1,8-naphthyridin-2-one derivative
(§4) The centrifugation supernatant of the homogenate of pig ventricular muscle was separated into isozyme by ortho-(diethylaminoethyl)-cellulose chromatography and used as an enzyme source. Respective isozymes were confirmed by the reaction with respective activity regulators. [^3 H]-cAMP was used as a substrate and the reaction was carried out in the presence of 5'-nucleotidase. A sample was dissolved in dimethyl sulfoxide and added to the reaction mixture. [^3 H]-5'-AMP produced by PDE was decomposed into [^3 H]-adenosine by 5'-nucleotidase. An anion exchange resin was added to adsorb the unreacted [^3 H]-cAMP, whereby the reaction was stopped. The [^3 H]-adenosine radioactivity of the supernatant was determined, based on which the PDE inhibitory action was calculated.

[4] = molecular target: T1, PDE isozyme II (Sus scrofa, UniProt F1SUV3); experiment: Inhibition of PDE (isozyme II); assay type: biochemical; settings: pig ventricular muscle, [3H]-cAMP substrate; read-out: PDE Inhibitory activity (IC5 :μM), PDE isozyme II
T1 construct: centrifugation supernatant of the homogenate of pig ventricular muscle; from tissue; host or cells: pig ventricular muscle, supernatant of homogenate, DEAE-cellulose fraction
T1 sequence (F1SUV3 1-945): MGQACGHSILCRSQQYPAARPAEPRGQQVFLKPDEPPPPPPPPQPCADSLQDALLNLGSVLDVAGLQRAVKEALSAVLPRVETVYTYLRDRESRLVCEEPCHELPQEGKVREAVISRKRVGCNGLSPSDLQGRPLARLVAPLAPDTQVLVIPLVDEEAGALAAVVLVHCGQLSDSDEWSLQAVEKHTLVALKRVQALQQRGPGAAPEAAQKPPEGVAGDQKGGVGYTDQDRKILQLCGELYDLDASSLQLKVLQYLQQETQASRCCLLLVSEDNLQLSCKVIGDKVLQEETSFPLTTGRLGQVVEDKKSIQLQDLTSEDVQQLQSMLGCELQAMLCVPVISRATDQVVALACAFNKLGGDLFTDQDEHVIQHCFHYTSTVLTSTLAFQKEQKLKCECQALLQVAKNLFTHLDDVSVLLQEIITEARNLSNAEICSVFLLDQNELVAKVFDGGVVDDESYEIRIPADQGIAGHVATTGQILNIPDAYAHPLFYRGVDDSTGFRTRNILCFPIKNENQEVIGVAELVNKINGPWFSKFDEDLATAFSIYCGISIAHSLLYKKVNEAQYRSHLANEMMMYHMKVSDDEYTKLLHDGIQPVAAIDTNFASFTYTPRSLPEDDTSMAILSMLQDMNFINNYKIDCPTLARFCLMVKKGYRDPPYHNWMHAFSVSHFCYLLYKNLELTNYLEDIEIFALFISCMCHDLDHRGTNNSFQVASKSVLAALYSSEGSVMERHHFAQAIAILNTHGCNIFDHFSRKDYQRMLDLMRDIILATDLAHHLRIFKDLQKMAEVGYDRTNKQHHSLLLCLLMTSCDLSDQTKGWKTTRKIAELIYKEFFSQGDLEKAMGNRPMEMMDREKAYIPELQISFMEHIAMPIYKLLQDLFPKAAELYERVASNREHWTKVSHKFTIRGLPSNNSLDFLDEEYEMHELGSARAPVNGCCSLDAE
Experimental: as §3, §4

[5] = molecular target: T2, PDE isozyme III (Sus scrofa, UniProt I3L6S5); experiment: Inhibition of PDE (isozyme III); assay type: biochemical; settings: pig ventricular muscle, [3H]-cAMP substrate; read-out: PDE Inhibitory activity (IC5 :μM), PDE isozyme III
T2 construct: centrifugation supernatant of the homogenate of pig ventricular muscle; from tissue; host or cells: pig ventricular muscle, supernatant of homogenate, DEAE-cellulose fraction
T2 sequence (I3L6S5 1-1145): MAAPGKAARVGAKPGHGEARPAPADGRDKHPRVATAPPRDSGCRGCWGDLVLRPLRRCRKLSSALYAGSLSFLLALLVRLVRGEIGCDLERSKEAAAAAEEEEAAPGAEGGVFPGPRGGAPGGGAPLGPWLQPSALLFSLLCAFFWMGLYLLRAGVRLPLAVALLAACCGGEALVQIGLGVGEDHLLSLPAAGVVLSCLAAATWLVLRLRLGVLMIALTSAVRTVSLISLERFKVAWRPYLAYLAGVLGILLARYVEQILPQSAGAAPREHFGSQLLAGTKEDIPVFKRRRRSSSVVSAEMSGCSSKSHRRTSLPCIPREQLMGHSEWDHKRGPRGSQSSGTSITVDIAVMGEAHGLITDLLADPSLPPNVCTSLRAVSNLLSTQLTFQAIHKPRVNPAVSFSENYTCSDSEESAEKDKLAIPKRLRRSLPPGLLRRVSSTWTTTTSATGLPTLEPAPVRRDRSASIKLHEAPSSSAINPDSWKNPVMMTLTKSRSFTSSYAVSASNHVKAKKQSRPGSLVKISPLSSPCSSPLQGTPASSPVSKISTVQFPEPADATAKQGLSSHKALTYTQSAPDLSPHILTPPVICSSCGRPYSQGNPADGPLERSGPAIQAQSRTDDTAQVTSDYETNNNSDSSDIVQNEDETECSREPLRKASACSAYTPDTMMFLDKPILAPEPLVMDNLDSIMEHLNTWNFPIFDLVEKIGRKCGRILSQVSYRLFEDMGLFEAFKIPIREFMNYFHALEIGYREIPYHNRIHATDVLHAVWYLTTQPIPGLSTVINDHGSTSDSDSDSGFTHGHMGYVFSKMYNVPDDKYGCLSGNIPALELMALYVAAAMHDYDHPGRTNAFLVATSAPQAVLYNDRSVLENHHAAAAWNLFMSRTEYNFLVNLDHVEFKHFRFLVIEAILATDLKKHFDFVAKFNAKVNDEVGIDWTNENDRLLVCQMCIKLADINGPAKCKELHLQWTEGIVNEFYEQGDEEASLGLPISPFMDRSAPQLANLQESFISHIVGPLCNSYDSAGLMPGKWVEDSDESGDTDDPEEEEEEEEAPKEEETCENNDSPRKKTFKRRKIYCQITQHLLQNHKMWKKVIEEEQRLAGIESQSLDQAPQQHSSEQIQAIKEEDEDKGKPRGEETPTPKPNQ
Experimental: as §3, §4

[6] = test system: PDE isozyme IV; experiment: Inhibition of PDE (isozyme IV); assay type: biochemical; settings: pig ventricular muscle, [3H]-cAMP substrate; read-out: PDE Inhibitory activity (IC5 :μM), PDE isozyme IV
Experimental: as §3, §4

[7] = test system: endothelin; experiment: Prevention of lethal effect on mice induced by intravenous administration of endothelin; assay type: in vivo, mice (male ICR)
Experimental: Prevention of lethal effect on mice induced by intravenous administration of endothelin
Male ICR mice (6-7 weeks of age) were used without anesthetization. A solvent (physiological saline or 0.5% carboxymethylcellulose in physiological saline) or a medium, in which a drug had been dissolved or suspended, was administered in a dose of 50 μl /10 g body weight via the tail vein of the mice. Five minutes later, 5 nmol/kg of endothelin (Peptide Institute) dissolved in the same amount of a solvent was intravenously administered. The mice were monitored for 60 minutes after the endothelin administration and the number of dead animals and the latency (seconds) until death were determined. […] The test results of Compound 2 are representatively shown.

[8] = test system: endothelin; experiment: Effect against endothelin-induced pressor activity in rats; assay type: in vivo, rats (male SD); settings: 10 mg/kg i.v., 10 min after endothelin 1 nmol/kg; blood pressure 20 min after endothelin
Experimental: Effect against endothelin-induced pressor activity in rats
Male SD rats (6 to 8 weeks of age) were anesthetized with sodium pentobarbital (60 mg/kg, i.p.), and a polyethylene catheter was inserted in the left carotid artery, which was connected to a pressure transducer (TP-400T, manufactured by Nihon Koden), and the blood pressure was measured via a polygraph (RM-6000 manufactured by Nihon Koden).
The pressor activity was induced by administering endothelin (1 nmol/kg) dissolved in a solvent, from the femoral vein. With regard to the animals ascertained to have increased blood pressure, a solvent or a medium, in which a drug had been dissolved or suspended, was administered in a dose of 1 ml/kg from the femoral vein of the rats 10 minutes after the endothelin administration, and the pressor activity was observed thereafter. The representative test results of Compound 2 are shown.
The results are shown in Table 14. in the Table, changes in blood pressure 20 minutes after the endothelin administration was compared with the value obtained before the endothelin administration.

[9] = test system: endothelin-induced contraction of extracted pig coronary artery; experiment: Suppression of endothelin-induced contraction in extracted pig coronary artery; settings: 10 μM
Experimental: Suppression of endothelin-induced contraction in extracted pig coronary artery
Rectangular specimens of pig left anterior descendens coronary artery (endothelial cells removed) were used. The specimens were heated to 37° C. and suspended in a Tyrode's solution (10 ml) aerated with a 95% O2 -5% CO2 mixed gas under the resting tension of 1.5 g, and changes in isometric tension were determined. The specimens were contracted with 10 nM endothelin and when the reaction became stable, a drug dissolved in dimethyl sulfoxide was added to the. Tyrode's solution. The relaxation ratio was calculated relative to the base line before the contraction, which was taken as 100% relaxation. The representative test results of Compound 2 (administration concentration: 10 μM) are shown.

[10] = Acute toxicity in mice; assay type: in vivo, mice (ICR); settings: mouse, in vivo, po, mice; estimated; read-out: oral lethal dose 50% (LD50)
Experimental: (§5) Acute toxicity of 1,8-naphthyridin-2-one derivative in mice
(§6) ICR mice (6-8 weeks of age, 7 per group) were fasted overnight and used for the experiment. A solvent (0.5% aqueous solution of carboxymethylcellulose) or a medium, in which a drug had been dissolved or suspended, was orally administered to mice in a dose of 0.1 ml/10 g body weight, and life or death of the animals was monitored for 72 hours after the administration. The representative test results of Compound 2 (300 mg/kg p.o.) are shown.

[11] = test system: mice; experiment: Acute toxicity in mice; assay type: in vivo, mice (ICR); settings: 300 mg/kg p.o., 72 hours
Experimental: as §5, §6

SMILES	Suppression of contraction % (HS) ([1]; 10 μM) [%]	Suppression of contraction % (LT) ([2]; 10 μM) [%]	IC50 [3] [µM]	IC50 [4] [µM]	IC50 [5] [µM]	IC50 [6] [µM]	Suppression of contraction % (HS) ([1]; 1 μM) [%]	Suppression of contraction % (LT) ([2]; 1 μM) [%]	Prevention of death: suppression of death (%) ([7]; 30 mg/kg i.v., 5 min before endothelin 5 nmol/kg i.v., 60 min monitoring)	Prevention of death: prolongation of latency (%) ([7]; 30 mg/kg i.v., 5 min before endothelin 5 nmol/kg i.v., ** P<0.01 relative to control, Tukey)	suppression of the death caused by endothelin and prolonging action of the latency until death ([7]; i.v.)	Endothelin-induced pressor activity, Suppression % [8] [%]	suppressive action on the endothelin-induced contraction [9]	Suppression % of endothelin-induced contraction ([9]; contracted with 10 nM endothelin, endothelial cells removed) [%]	LD50 at 72 h [10] [mg/kg]	Death (number of animals) ([11]; 7 animals administered)	acute toxicity test result [11]
Cc1ccccc1-c1cc2cccnc2n(Cc2ccccc2F)c1=O [Compound 1, 1-(2-fluorobenzyl)-3-(2-methylphenyl)-1,8-naphthyridin-2(1H)-one]	100	88	> 50	> 50	> 50	0.4											
O=c1c(-c2ccccn2)cc2cccnc2n1CC1CC1 [Compound 3]			66	18	80	1.4	60	100									
CC(C)CCn1c(=O)c(-c2ccc(Cl)cc2)cc2cccnc21 [Compound 5]			> 50	> 50	> 50	0.35											
C=CCn1c(=O)c(-c2ccc(OC)cc2)cc2cccnc21 [Compound 4]	100	100	49	> 50	44	0.38											
Cn1c(=O)c(-c2ccccc2)cc2cccnc21 [Compound 2]	93		29	39	> 50	1.6			52	305	showed suppression of the death caused by endothelin and a prolonging action of the latency until death	38.5	showed evident suppressive action	74	≥ 300	0	tested negative in the acute toxicity test
